Assay results taken from US20130079345A1, “[…] ACTIVE DISUBSTITUTED TRIAZINE DERIVATIVES” (BAYER INTELLECTUAL PROPERTY GMBH, priority 2010, published 2013).
pIC50, pKd: −log10 of the molar value.

Legend:
MDAMB468 cells = assay: Cell viability assay, MDAMB468 cells; assay type: cell-based; conditions: Homo sapiens, MDA-MB-468, 72 h, Cell Titer Glo
Method: (§1) HeLa- or MDAMB468-Cells or MATU ADR, H460, DU145, CACO-2 or B16F10 cells were maintained in RPMI 1640 or McCoy's 5A cell culture medium+glutamine (PAN Biotech GmbH, Aidenbach, Germany; order no. P04-22100; P04-05500) supplemented with 10% fetal calf serum “Gold” (PAA Laboratories GmbH, Pasching, Austria; order no. A15-151) and grown at 37° C., 5% CO2. For the cell viability assay, cells were seeded with a density of 400 (Hela cells, DSMZ Braunschweig order no. ACC57) or 800 (MDAMB468 cells, ATCC order no. HTB-132) per well in 25 μL in 384-well plates (Greiner Bio-One, Frickenhausen, Germany; order no. 781080). After overnight incubation at 37° C./5% CO2, 25 nL or 75 nL compound were added to each sample well by using BIOMEK FXP Laboratory Automation Workstation (Beckman Coulter, USA). Wells with cells and 0.1% or 0.3% DMSO in culture medium were used as positive controls, wells with cells and 10 μM staurosporine in culture medium were used as negative controls. The cells were incubated with the compounds for 72 h at 37° C./5% CO2. For measurement of cell viability […] Cell Titer Glo reagent (Promega, Madison, USA; order no. G7573), 1:2 diluted with cell culture medium, was added to each well. The 384well-plates were placed for 2 min on an orbital microplate shaker and incubated for further 10 min at room temperature to stabilize the luminescence signal. Luminescence was measured by Envision Plate Reader (Perkin Elmer, USA). EC50 values were calculated with the software Excel Fit (IDBS, Guildford, UK) from 3-fold dilution series comprising at least 8 concentrations in duplicates.

CDK7/CyclinH/Mat1 = biological target: T1, CDK7/CyclinH/Mat1 (Homo sapiens, UniProt P50613); assay: LanthaScreen Eu Kinase Binding Assay, CDK7; conditions: tracer 236, read-out: Affinity (Kd) CDK7
T1 construct: purchased Carna Biosciences
T1 sequence (P50613 whole entry): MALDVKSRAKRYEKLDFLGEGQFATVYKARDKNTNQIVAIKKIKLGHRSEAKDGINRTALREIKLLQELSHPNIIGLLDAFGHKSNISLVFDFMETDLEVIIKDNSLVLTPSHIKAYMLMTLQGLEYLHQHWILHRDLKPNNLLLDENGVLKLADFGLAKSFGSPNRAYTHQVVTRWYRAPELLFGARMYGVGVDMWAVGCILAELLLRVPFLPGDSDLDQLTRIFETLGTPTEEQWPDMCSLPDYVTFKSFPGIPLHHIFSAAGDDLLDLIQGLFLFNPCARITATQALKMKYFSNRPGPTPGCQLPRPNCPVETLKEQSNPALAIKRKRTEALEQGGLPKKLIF
T1 sequence (P51946 whole entry partner): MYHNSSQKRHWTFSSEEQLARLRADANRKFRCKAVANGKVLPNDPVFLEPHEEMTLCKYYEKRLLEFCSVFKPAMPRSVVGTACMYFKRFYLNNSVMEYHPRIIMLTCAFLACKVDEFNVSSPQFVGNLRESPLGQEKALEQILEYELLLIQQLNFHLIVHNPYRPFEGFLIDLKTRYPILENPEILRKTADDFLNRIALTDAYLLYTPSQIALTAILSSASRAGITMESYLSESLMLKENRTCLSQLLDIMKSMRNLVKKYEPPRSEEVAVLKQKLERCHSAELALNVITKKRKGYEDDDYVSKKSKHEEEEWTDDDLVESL
T1 sequence (P51948 whole entry partner): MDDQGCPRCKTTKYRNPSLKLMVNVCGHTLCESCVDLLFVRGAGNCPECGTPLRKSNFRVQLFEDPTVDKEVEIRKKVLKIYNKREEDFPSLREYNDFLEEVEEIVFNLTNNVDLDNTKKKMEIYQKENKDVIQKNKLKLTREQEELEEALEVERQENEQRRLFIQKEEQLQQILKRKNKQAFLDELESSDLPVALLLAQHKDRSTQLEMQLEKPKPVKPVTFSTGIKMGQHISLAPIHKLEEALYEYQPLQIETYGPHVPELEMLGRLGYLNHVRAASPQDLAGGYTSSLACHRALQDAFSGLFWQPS
Outline: (§2)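 TR-FRET competition binding with Alexa Fluor 647 tracer and Eu-anti-GST antibody; e.g. CDK2/Cyclin A 15 nM with tracer 236 60 nM (working solutions). Kinase buffer: HEPES 20 mM pH 8.0, MgCl2 10 mM, DTT 1 mM, Brij-35 0.01%; 8-point 1:3 series, 1 h at room temperature; Kd from sigmoidal dose-response curves.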

CDK9 = biological target: T2, CDK9 (Homo sapiens, UniProt P50750); assay: Lance Ultra KinaSelect Assay, CDK9; assay type: biochemical; conditions: read-out: Inhibition (IC50) CDK9
T2 construct: purchased Invitrogen
T2 sequence (P50750 whole entry): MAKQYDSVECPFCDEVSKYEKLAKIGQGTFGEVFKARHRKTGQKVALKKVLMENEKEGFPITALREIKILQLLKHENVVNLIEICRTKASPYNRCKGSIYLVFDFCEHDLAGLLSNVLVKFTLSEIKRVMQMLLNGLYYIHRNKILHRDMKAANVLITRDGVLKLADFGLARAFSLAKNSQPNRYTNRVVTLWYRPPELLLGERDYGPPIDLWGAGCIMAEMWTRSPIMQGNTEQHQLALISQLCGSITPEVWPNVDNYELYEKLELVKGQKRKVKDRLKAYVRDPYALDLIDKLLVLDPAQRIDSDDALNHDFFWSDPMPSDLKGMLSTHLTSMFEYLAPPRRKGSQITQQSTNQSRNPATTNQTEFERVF
Method: This protocol describes how the Lance Ultra KinaSelect Assay was performed to determine half maximal inhibitory concentration (IC50) of compounds of general formula (I) and CDK/Cyclin complexes. The principle behind this enzymatic assay is based upon the phosphorylation of the ULight-Peptide Substrat. It is detected by using a specific EU-labeled anti-phospho peptide antibody. The binding of the Eu-labeled anti-phospho peptide antibody to the phosphorylated U Light labeled peptide gives rise to a FRET-signal. Binding of an inhibitor to the kinase prevents phosphorylation of the ULight-MBP Substrat, resulting in a loss of FRET.
The compounds of general formula (I) summarized in Table 5 were diluted from a 10 mM DMSO stock solution 1:10 in a total volume of 15 μL DMSO. This compound predilution was then serial diluted 1:3 over 8 steps in DMSO and briefly spun down. Each compound solution was now diluted 1:20 in Enzymatic Buffer (HEPES: 50 mM, pH: 7.5; MgCl2: 10 mM; EGTA: 1 mM; DTT: 2 mM; Tween-20: 0.01%), mixed thoroughly and spun down. For every sample, 2 μL of the diluted compound were mixed with 6 μL CDK/Cyclin/Substrat solution and […] in a well of a small volume 384 well plate (Corning Incorporated, Corning, N.Y., USA; order no. 3673). […] For positive controls, in each well 2 μL of DMSO solution (1% final DMSO assay concentration) was mixed with 6 μL CDK/Cyclin/Substrat (appropriate final concentration see Table 3) and 2 μL Tracer ATP solution (appropriate final concentration see Table 3). Positive and negative controls were calculated from at least 8 different sample wells. The 384 well plates were mixed in a Teleshaker plate mixer (Beckman Coulter, Brea, Calif., USA) at 2000 rpm for 40 sec, and incubated for 1 h at room temperature. Before reading, 10 μL detection buffer (Lance Detection Buffer 1×; EDTA: […]; Eu-Anti-P-MBP: see Table 3) was added. The FRET signal was measured at 340 nm excitation, 665 nm and 615 nm emission (for the kinase tracer and LanthaScreen Eu-AB, respectively) with an Envision spectrophotometer (Perkin Elmer, Waltham, Mass., USA) with 50 μs delay and 300 μs integration time. IC50 values were determined from the sigmoidal dose response curves with the software Quattro Workflow (Quattro GmbH, Munich, Germany).

CDK9/Cyclin T1 = biological target: T3, CDK9/Cyclin T1 (Homo sapiens, UniProt P50750); assay: LanthaScreen Eu Kinase Binding Assay, CDK9/Cyclin T1; conditions: tracer 236, read-out: Affinity (Kd) CDK9/Cyclin T1
T3 construct: purchased Invitrogen
T3 sequence (P50750 whole entry): as above
T3 sequence (O60563 whole entry partner): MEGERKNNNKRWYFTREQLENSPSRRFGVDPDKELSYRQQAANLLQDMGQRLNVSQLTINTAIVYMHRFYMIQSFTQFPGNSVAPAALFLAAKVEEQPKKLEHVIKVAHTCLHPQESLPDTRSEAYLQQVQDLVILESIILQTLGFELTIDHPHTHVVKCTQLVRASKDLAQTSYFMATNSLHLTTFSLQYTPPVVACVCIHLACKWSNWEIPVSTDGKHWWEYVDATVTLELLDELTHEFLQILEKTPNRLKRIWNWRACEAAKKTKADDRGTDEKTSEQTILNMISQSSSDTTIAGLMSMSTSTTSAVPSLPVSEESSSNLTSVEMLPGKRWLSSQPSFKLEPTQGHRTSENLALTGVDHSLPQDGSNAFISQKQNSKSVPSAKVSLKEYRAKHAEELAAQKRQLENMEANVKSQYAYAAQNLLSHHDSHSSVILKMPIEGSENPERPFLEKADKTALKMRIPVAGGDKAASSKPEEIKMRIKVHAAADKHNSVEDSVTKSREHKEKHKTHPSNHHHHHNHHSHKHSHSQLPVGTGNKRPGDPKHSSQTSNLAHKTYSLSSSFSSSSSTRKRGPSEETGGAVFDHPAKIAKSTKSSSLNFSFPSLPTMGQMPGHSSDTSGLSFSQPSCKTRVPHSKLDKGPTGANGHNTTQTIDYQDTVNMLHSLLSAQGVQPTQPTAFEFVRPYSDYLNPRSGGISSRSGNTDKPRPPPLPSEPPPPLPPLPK
Outline: as §2

CDK2/CyclinA = biological target: T4, CDK2/CyclinA (Homo sapiens, UniProt P24941); assay: LanthaScreen Eu Kinase Binding Assay, CDK2; conditions: tracer 236, read-out: Affinity (Kd) CDK2
T4 construct: purchased Proqinase
Outline: as §2

CDK9/Cyclin K = biological target: T5, CDK9/Cyclin K (Homo sapiens, UniProt P50750); assay: LanthaScreen Eu Kinase Binding Assay, CDK9/Cyclin K; conditions: tracer 236, read-out: Affinity (Kd) CDK9/Cyclin K
T5 construct: purchased Invitrogen
T5 sequence (P50750 whole entry): as the sequence (P50750 whole entry) above
T5 sequence (O75909 whole entry partner): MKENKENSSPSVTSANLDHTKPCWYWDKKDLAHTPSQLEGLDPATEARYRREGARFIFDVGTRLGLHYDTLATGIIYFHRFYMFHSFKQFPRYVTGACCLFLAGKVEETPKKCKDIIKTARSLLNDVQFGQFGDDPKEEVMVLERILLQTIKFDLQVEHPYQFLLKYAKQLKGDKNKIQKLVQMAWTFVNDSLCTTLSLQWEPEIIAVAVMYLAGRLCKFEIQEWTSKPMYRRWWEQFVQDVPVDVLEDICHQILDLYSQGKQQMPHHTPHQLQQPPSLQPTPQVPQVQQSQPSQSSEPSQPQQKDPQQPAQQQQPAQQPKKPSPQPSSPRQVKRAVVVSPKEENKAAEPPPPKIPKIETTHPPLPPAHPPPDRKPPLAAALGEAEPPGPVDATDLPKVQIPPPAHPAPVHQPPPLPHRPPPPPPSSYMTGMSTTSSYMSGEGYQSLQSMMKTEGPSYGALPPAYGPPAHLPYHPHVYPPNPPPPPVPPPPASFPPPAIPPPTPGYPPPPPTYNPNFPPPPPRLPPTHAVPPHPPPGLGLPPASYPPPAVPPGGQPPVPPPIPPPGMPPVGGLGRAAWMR
Outline: as §2

HeLa cells = assay: Cell viability, HeLa cells; assay type: cell-based; conditions: Homo sapiens
Method: as §1
Cultivated tumour cells (NCl-H460, human non-small cell lung carcinoma cells, ATCC HTB-177; DU 145, hormone-independent human prostate carcinoma cells, ATCC HTB-81; HeLa-MaTu, human cervical carcinoma cells, EPO-GmbH, Berlin; HeLa-MaTu-ADR, multidrug-resistant human cervical carcinoma cells, EPO-GmbH, Berlin; HeLa human cervical tumour cells, ATCC CCL-2; Caco-2 human colorectal carcinoma, ATCC HTB-37; B16F10 mouse melanoma cells, ATCC CRL-6475) were plated at a density of 5,000 cells/well (DU145, HeLa-MaTu-ADR), 3,000 cells/well (NCl-H460, HeLa-MaTu, HeLa), 1,500 cells/well (Caco-2), or 1,000 cells/well (B16F10) in a 96-well multititer plate in 200 μL of their respective growth medium supplemented with 10% fetal calf serum. After 24 hours, the cells of one plate (zero-point plate) were stained with crystal violet (see below), while the medium of the other plates was replaced by fresh culture medium (200 μl), to which the test substances were added in various concentrations (0 μM as well as in the range of 0.001 to 10 μM; the final concentration of the solvent dimethyl sulfoxide was 0.5%). The cells were incubated in the presence of test substances for 4 days. Cell proliferation was determined by staining the cells with crystal violet: The cells were fixed by adding 20 μl/measuring point of an 11% glutaric aldehyde solution at room temperature for 15 minutes. After three washing cycles of the fixed cells with water, the plates were dried at room temperature. The cells were stained by adding 100 μl/measuring point of a 0.1% crystal violet solution (pH 3.0). After three washing cycles of the stained cells with water, the plates were dried at room temperature. The dye was dissolved by adding 100 μl/measuring point of a 10% acetic acid solution. The extinction was determined by photometry at a wavelength of 595 nm. The change of cell number, in percent, was calculated by normalization of the measured values to the extinction values of the zero-point plate (equivalent to 0%) and the extinction of the untreated (0 μm) cells (equivalent to 100%). The IC50 values were determined by means of a 4 parameter fit using the company's own software.

CDK2/CycE = biological target: T6, CDK2/CycE (Homo sapiens, UniProt P24941); assay: CDK2/CycE kinase assay (TR-FRET); assay type: biochemical; conditions: ATP 10 μM, values given in μM
T6 construct: GST; purchased ProQinase GmbH (Freiburg, Germany); host or cells: insect cells (Sf-9)
Description: CDK2/CycE-inhibitory activity of compounds of the present invention was quantified employing the CDK2/CycE TR-FRET assay as described in the following paragraphs.
Recombinant fusion proteins of glutathione S-transferase (GST) and human CDK2 and of GST and human CycE, expressed in insect cells (Sf-9) and purified by glutathion-sepharose affinity chromatography, were purchased from ProQinase GmbH (Freiburg, Germany). A biotinylated peptide biotin-Ttds-[…] (C-terminus in amide form), which can be purchased from e.g the company JERINI Peptide Technologies (Berlin, Germany), was used as a substrate for the kinase reaction.
For the assay, 50 nl of a 100-fold concentrated solution of the test compound in DMSO was pipetted into a well of a black low-volume 384-well microtiter plate (Greiner Bio-One, Frickenhausen, Germany), 2 μl of a solution of CDK2/CycE in aqueous assay buffer [50 mM Tris/HCl pH 8.0], 10 mM MgCl2, 1.0 mM dithiothreitol, 0.1 mM sodium ortho-vanadate, 0.01% (v/v) Nonidet-P40 (Sigma)] were added. The mixture was incubated at 22° C. for 15 min to allow pre-binding of the test compounds to the enzyme before the start of the kinase reaction. […] The resulting mixture was incubated at 22° C. for 25 minutes. The concentration of CDK2/CycE was adjusted depending on the activity of the enzyme lot and was chosen appropriately for measurements in the linear range of the assay. Typical concentrations were in the range of 130 ng/ml. The reaction was stopped by the addition of 5 μl of a solution of TR-FRET detection reagents (0.2 μM streptavidine-XL and 1 nM anti-RB(pSer807/pSer811)-antibody from BD Pharmingen [#558389] and 1.2 nM LANCE EU-W1024 labeled anti-mouse IgG antibody [Perkin-Elmer, product no. AD0077]) in an aqueous EDTA-solution (100 mM EDTA, 0.2% (w/v) bovine serum albumin in 100 mM HEPES/NaOH, pH 7.0).
The resulting mixture was incubated at 22° C. for one hour to allow the formation of a complex between the phosphorylated biotinylated peptide and the detection reagents. Subsequently, the amount of phosphorylated substrate was evaluated by measuring the resonance energy transfer from the Eu-chelate to the streptavidine-XL. Therefore, the fluorescence emissions at 620 nm and 665 nm after excitation at 350 nm were measured in a high time-resolved fluorometry (HTRF) reader, e.g. a Rubystar (BMG Labtechnologies, Offenburg, Germany) or a Viewlux (Perkin-Elmer). The ratio of the emissions at 665 nm and at […] was taken as a measure for the amounts of phosphorylated substrate. The data were normalised, i.e. enzyme reaction without inhibitor corresponds to 0% inhibition, and all other assay components in the absence of the enzyme correspond to 100% inhibition. IC50 values were calculated by a 4-parameter fit using in-house software.

| pIC50 (MDAMB468 cells) | pKd (CDK7/CyclinH/Mat1) | pIC50 (CDK9) | pKd (CDK9/Cyclin T1) | pKd (CDK2/CyclinA) | pKd (CDK9/Cyclin K) | pIC50 (HeLa cells) | IC50 (CDK2/CycE) | SMILES |
| --- | --- | --- | --- | --- | --- | --- | --- | --- |
| 4.64 | < 5.00 | 6.08 | 6.87 | 5.66 | 6.52 | – | – | COc1ccccc1-c1ncnc(Nc2cccc(C(N)=O)c2)n1 [Compound E1, 3-[(4-(2-Methoxyphenyl)-1,3,5-triazin-2-yl)amino]benzamide] |
| – | – | – | – | – | – | 5.47 | 2.1 µM | COc1ccccc1-c1cc(Nc2cccc(CS(N)(=O)=O)c2)ncn1 [Ref1, C-{3-[6-(2-Methoxy-phenyl)-pyrimidin-4-ylamino]-phenyl}-methanesulfonamide, reference compound] |
